Assay results taken from the RepoRT retention time repository (doi:10.1016/j.chroma.2022.462867).

Key:
Settings in all cases: stereoisomer not certain
[1] = RP, Phenomenex Kinetex PS C18, 150 × 3 mm, 2.6 µm, 40 °C, 0.35 mL/min, estimated dead time 1.9 min; A: water + 5 mM ammonium acetate, pH 5; B: methanol; gradient (min/%B) 0/5 20/100 25/100 30/5
[2] = RP, Phenomenex Kinetex EVO C18, 150 × 3 mm, 2.6 µm, 40 °C, 0.35 mL/min, estimated dead time 1.9 min; A: water + 5 mM ammonium formate, pH 5; B: acetonitrile; gradient (min/%B) 0/5 20/100 25/100 30/5
[3] = RP, Phenomenex Kinetex EVO C18, 150 × 3 mm, 2.6 µm, 40 °C, 0.35 mL/min, estimated dead time 1.9 min; A: water + 0.1% formic acid, pH 3; B: methanol; gradient (min/%B) 0/5 20/100 25/100 30/5
[4] = HILIC, Phenomenex Kinetex HILIC, 150 × 3 mm, 2.6 µm, 40 °C, 0.35 mL/min, estimated dead time 1.9 min; A: water + 0.1% formic acid, pH 3; B: methanol; gradient (min/%B) 0/95 20/0 25/0 30/95

SMILES: O=C1Nc2ccc(Cl)cc2C(C#CC2CC2)(C(F)(F)F)O1 (stereo not given) [Efavirenz]
- LC retention time [1]: 16.7 min
- LC retention time [2]: 13.6 min
- LC retention time [3]: 16.8 min

SMILES: CCCCC(=O)N(Cc1ccc(-c2ccccc2-c2nn[nH]n2)cc1)C(C(=O)O)C(C)C (stereo not given) [Valsartan]
- LC retention time [1]: 13.5 min
- LC retention time [2]: 8.73 min

SMILES: CCC(=O)Nc1ccc(Cl)c(Cl)c1 [Propanil]
- LC retention time [1]: 15 min
- LC retention time [2]: 11.8 min
- LC retention time [3]: 14.9 min

SMILES: CC(C)C1=CC2=CCC3C(C)(C(=O)O)CCCC3(C)C2CC1 (stereo not given) [Abietic acid]
- LC retention time [1]: 20.3 min
- LC retention time [2]: 16.9 min

SMILES: Nc1cnn(-c2ccccc2)c(=O)c1Cl [Chloridazon]
- LC retention time [1]: 9.65 min
- LC retention time [2]: 6.18 min
- LC retention time [3]: 8.88 min

SMILES: Nc1ccc(Cl)cc1 [4-Chloroaniline]
- LC retention time [1]: 10.3 min
- LC retention time [2]: 8.88 min
- LC retention time [3]: 5.28 min

SMILES: CCCSP(=O)(OCC)SCCC [Ethoprop]
- LC retention time [1]: 16.5 min

SMILES: O=C(O)c1ccc2ccccc2c1 [2-naphthoic acid]
- LC retention time [1]: 13 min
- LC retention time [3]: 14.1 min

SMILES: CCN=C1NC(NC(C)C)=NC(Cl)N1 (stereo not given) [Atrazine]
- LC retention time [1]: 13.9 min
- LC retention time [3]: 13.6 min

SMILES: CCC(C)(C)C(=O)OC1CC(C)C=C2C=CC(C)C(CCC3CC(O)CC(=O)O3)C21 (stereo not given) [Simvastatin]
- LC retention time [1]: 19.1 min
- LC retention time [2]: 14.9 min

SMILES: C#CC1(O)CCC2C3CCC4=CC(=O)CCC4C3CCC21C (stereo not given) [Norethindrone]
- LC retention time [1]: 15.9 min
- LC retention time [2]: 11.2 min
- LC retention time [3]: 14.9 min

SMILES: Oc1ccc2ccccc2c1N=Nc1ccccc1 [Sudan I]
- LC retention time [1]: 19.2 min
- LC retention time [2]: 15.2 min
- LC retention time [3]: 19.4 min

SMILES: Nc1nc(N)nc(N)n1 [Melamine]
- LC retention time [1]: 2.33 min

SMILES: OC(Cn1cncn1)(Cn1cncn1)c1ccc(F)cc1F [fluconazole]
- LC retention time [1]: 9.64 min
- LC retention time [2]: 5.92 min
- LC retention time [3]: 8.85 min

SMILES: CCCc1cc(=O)[nH]c(=S)[nH]1 [Propylthiouracil]
- LC retention time [1]: 7.7 min
- LC retention time [2]: 4.45 min
- LC retention time [3]: 6.85 min

SMILES: Cn1c(=O)c2c(ncn2C)n(C)c1=O [Caffeine]
- LC retention time [1]: 7.93 min
- LC retention time [2]: 3.88 min
- LC retention time [3]: 6.69 min

SMILES: CC(O)(CS(=O)(=O)c1ccc(F)cc1)C(=O)Nc1ccc(C#N)c(C(F)(F)F)c1 (stereo not given) [Bicalutamide]
- LC retention time [1]: 14.6 min
- LC retention time [2]: 12.2 min
- LC retention time [3]: 14.4 min

SMILES: N#Cc1nn(-c2c(Cl)cc(C(F)(F)F)cc2Cl)c(N)c1S(=O)C(F)(F)F (stereo not given) [Fipronil]
- LC retention time [1]: 16.6 min
- LC retention time [3]: 16.7 min

SMILES: Cc1ccc2n[nH]nc2c1 [5-Methyl-1H-benzotriazole]
- LC retention time [1]: 10.4 min
- LC retention time [2]: 6.42 min
- LC retention time [3]: 9.78 min

SMILES: CCN=C1NC(Cl)NC(NC(C)(C)C#N)N1 (stereo not given) [Cyanazine]
- LC retention time [1]: 12 min
- LC retention time [2]: 8.86 min
- LC retention time [3]: 11.4 min

SMILES: CNC(=O)C=C(C)OP(=O)(OC)OC [Monocrotophos]
- LC retention time [1]: 7.86 min
- LC retention time [2]: 4.17 min
- LC retention time [3]: 6.95 min

SMILES: CSc1nc2ccccc2s1 [2-(Methylthio)benzothiazole]
- LC retention time [1]: 15 min
- LC retention time [2]: 11.6 min
- LC retention time [3]: 15.2 min

SMILES: CCc1cccc(C)c1N(C(=O)CCl)C(C)COC (stereo not given) [Metolachlor]
- LC retention time [1]: 16.6 min
- LC retention time [2]: 12.9 min
- LC retention time [3]: 16.3 min

SMILES: Cc1cc(=O)n(-c2ccccc2)n1C [Phenazone (Antipyrine)]
- LC retention time [1]: 9.04 min
- LC retention time [3]: 7.82 min

SMILES: c1ccc2n[nH]nc2c1 [1H-Benzotriazole]
- LC retention time [1]: 8.12 min
- LC retention time [2]: 5 min
- LC retention time [3]: 7.35 min

SMILES: CSC1N=C(NC2CC2)NC(NC(C)(C)C)N1 (stereo not given) [Irgarol]
- LC retention time [1]: 16.6 min

SMILES: CCOP(=S)(OCC)Oc1nc(Cl)c(Cl)cc1Cl [Chlorpyrifos]
- LC retention time [1]: 18.8 min
- LC retention time [2]: 15.9 min

SMILES: C1=Cc2ccccc2Nc2ccccc21 [Iminostilbene]
- LC retention time [1]: 15.5 min
- LC retention time [2]: 13 min
- LC retention time [3]: 15.7 min

SMILES: CC12CCC(=O)C=C1CCC1C2C(O)CC2(C)C(C(=O)CO)CCC12 (stereo not given) [Corticosterone]
- LC retention time [1]: 15 min
- LC retention time [2]: 9.72 min
- LC retention time [3]: 14 min

SMILES: Cn1c(=O)c2[nH]cnc2n(C)c1=O [Theophylline]
- LC retention time [1]: 6.79 min
- LC retention time [2]: 3.27 min
- LC retention time [3]: 5.29 min

SMILES: CC(=O)OCC(=O)C1(O)CCC2C3CCC4=CC(=O)CCC4(C)C3C(O)CC21C (stereo not given) [Hydrocortisonacetate]
- LC retention time [1]: 15 min
- LC retention time [2]: 10.6 min
- LC retention time [3]: 14.3 min

SMILES: O=[N+]([O-])c1ccc2ccc3cccc4ccc1c2c34 [1-Nitropyrene]
- LC retention time [1]: 18.4 min
- LC retention time [2]: 14.8 min

SMILES: Nc1ccc(S(=O)(=O)Nc2ccccn2)cc1 [Sulfapyridine]
- LC retention time [1]: 6.53 min
- LC retention time [2]: 4.4 min
- LC retention time [3]: 5.39 min

SMILES: CC(C)COP(=O)(OCC(C)C)OCC(C)C [Tri-isobutyl phosphate]
- LC retention time [1]: 18 min
- LC retention time [2]: 14 min
- LC retention time [3]: 17.8 min

SMILES: NS(=O)(=O)c1cc2c(cc1Cl)NCNS2(=O)=O [Hydrochlorothiazide]
- LC retention time [1]: 13.8 min
- LC retention time [2]: 9.77 min
- LC retention time [3]: 4.62 min

SMILES: CCOP(=S)(OCC)Oc1ccc([N+](=O)[O-])cc1 [Parathion]
- LC retention time [1]: 16.7 min
- LC retention time [2]: 14.2 min
- LC retention time [3]: 16.8 min

SMILES: Oc1ccc2ccc3cccc4ccc1c2c34 [1-hydroxypyrene]
- LC retention time [1]: 16.7 min
- LC retention time [2]: 13.1 min

SMILES: COc1ccc(Cl)cc1C(=O)NCCc1ccc(S(=O)(=O)NC(=O)NC2CCCCC2)cc1 [Glibenclamide]
- LC retention time [1]: 16 min
- LC retention time [2]: 12.5 min
- LC retention time [3]: 16.2 min

SMILES: Cc1cc(C)nc(NS(=O)(=O)c2ccc(N)cc2)n1 [Sulfamethazine]
- LC retention time [1]: 7.93 min
- LC retention time [2]: 5.18 min
- LC retention time [3]: 6.77 min

SMILES: CC(=O)C1CCC2C3CCC4=CC(=O)CCC4(C)C3CCC12C (stereo not given) [Progesterone]
- LC retention time [1]: 17.8 min
- LC retention time [2]: 13.3 min
- LC retention time [3]: 16.9 min

SMILES: CC12CCC3c4ccc(O)cc4CCC3C1CCC2=O (stereo not given) [Estrone]
- LC retention time [1]: 15.7 min
- LC retention time [2]: 11.7 min
- LC retention time [3]: 15.1 min

SMILES: c1ccc2scnc2c1 [Benzothiazole]
- LC retention time [1]: 11.5 min
- LC retention time [2]: 7.96 min
- LC retention time [3]: 11.2 min

SMILES: CC12CCC3c4ccc(O)cc4CCC3C1CCC2O (stereo not drawn) [17beta estradiol]
- LC retention time [1]: 15.8 min
- LC retention time [2]: 11.2 min
- LC retention time [3]: 15.2 min

SMILES: CCC1=C(C)CN(C(=O)NCCc2ccc(S(=O)(=O)NC(=O)NC3CCC(C)CC3)cc2)C1=O (stereo not given) [Glimepiride]
- LC retention time [1]: 16.5 min
- LC retention time [2]: 12.8 min

SMILES: NS(=O)(=O)c1cc(C2(O)NC(=O)c3ccccc32)ccc1Cl (stereo not given) [Chlorthalidone]
- LC retention time [1]: 9.81 min
- LC retention time [2]: 6.87 min
- LC retention time [3]: 9.19 min

SMILES: c1ccc2nccnc2c1 [Quinoxaline]
- LC retention time [1]: 9.84 min
- LC retention time [2]: 5.73 min
- LC retention time [3]: 8.84 min

SMILES: CN(C)C(=O)Nc1ccc(Cl)cc1 [Monuron]
- LC retention time [1]: 11.9 min
- LC retention time [2]: 8.56 min
- LC retention time [3]: 11.5 min

SMILES: CCOP(=O)(OCC)OCC [Triethyl phosphate]
- LC retention time [1]: 11.2 min
- LC retention time [2]: 6.52 min
- LC retention time [3]: 10.5 min

SMILES: CSC1N=C(NC(C)C)NC(NC(C)C)=N1 [Prometryn]
- LC retention time [1]: 16.2 min
- LC retention time [2]: 12.5 min

SMILES: NC(=O)N1c2ccccc2C=Cc2ccccc21 [Carbamazepine]
- LC retention time [1]: 13.2 min
- LC retention time [3]: 12.6 min

SMILES: c1ccc2c(c1)[nH]c1ccccc12 [Carbazole]
- LC retention time [1]: 15.1 min
- LC retention time [2]: 12.5 min
- LC retention time [3]: 15.5 min

SMILES: CCN=C1NC(=NCC)NC(Cl)N1 (stereo not given) [Simazine]
- LC retention time [1]: 12.4 min
- LC retention time [2]: 8.6 min
- LC retention time [3]: 11.9 min

SMILES: O=P(Oc1ccccc1)(Oc1ccccc1)Oc1ccccc1 [Triphenylphosphate]
- LC retention time [1]: 17.3 min
- LC retention time [2]: 13.8 min
- LC retention time [3]: 17.2 min

SMILES: CCc1cccc(CC)c1N(COC)C(=O)CCl [Alachlor]
- LC retention time [1]: 16.4 min
- LC retention time [2]: 13 min
- LC retention time [3]: 16.2 min

SMILES: NC(=O)c1cccnc1 [Nicotinamide]
- LC retention time [1]: 3.85 min

SMILES: COC(=O)C1CCCCC1S(=O)(=O)NC(=O)NC1=NC(OC)NC(C)N1 (stereo not given) [Metsulfuron-methyl]
- LC retention time [1]: 9.47 min
- LC retention time [2]: 5.28 min
- LC retention time [3]: 12.2 min

SMILES: CN1CC(=O)NC1=N [Creatinine]
- LC retention time [4]: 4 min

SMILES: Cc1cccc(C)c1N(Cn1cccn1)C(=O)CCl [Metazachlor]
- LC retention time [1]: 14.1 min
- LC retention time [2]: 10.6 min
- LC retention time [3]: 13.7 min

SMILES: CCCCC1=NC2(CCCC2)C(=O)N1Cc1ccc(-c2ccccc2-c2nn[nH]n2)cc1 [Irbesartan]
- LC retention time [1]: 14.6 min
- LC retention time [2]: 9.45 min
- LC retention time [3]: 14.5 min

SMILES: CCCN(CCC)c1c([N+](=O)[O-])cc(C(F)(F)F)cc1[N+](=O)[O-] [Trifluralin]
- LC retention time [1]: 19 min
- LC retention time [2]: 16.5 min
- LC retention time [3]: 16.9 min

SMILES: CN(C)C(=O)Nc1ccc(Cl)c(Cl)c1 [Diuron]
- LC retention time [1]: 14.1 min
- LC retention time [2]: 10.6 min
- LC retention time [3]: 13.9 min
